Structures are written as SMILES.

MetAP-2, sequence (P50579 whole entry, species assumed): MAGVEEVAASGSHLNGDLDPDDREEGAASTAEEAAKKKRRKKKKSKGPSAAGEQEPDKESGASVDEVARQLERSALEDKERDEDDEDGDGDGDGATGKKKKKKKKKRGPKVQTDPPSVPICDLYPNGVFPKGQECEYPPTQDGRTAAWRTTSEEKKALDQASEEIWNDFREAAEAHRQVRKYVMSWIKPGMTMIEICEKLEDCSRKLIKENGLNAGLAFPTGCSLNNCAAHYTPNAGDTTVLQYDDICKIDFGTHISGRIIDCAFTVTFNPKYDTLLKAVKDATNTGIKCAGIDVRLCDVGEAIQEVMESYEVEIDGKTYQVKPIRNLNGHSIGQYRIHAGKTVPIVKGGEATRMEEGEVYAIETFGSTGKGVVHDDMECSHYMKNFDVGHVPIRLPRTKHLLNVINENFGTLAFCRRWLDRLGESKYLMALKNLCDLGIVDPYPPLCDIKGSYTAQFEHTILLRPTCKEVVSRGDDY

This experiment has as its target MetAP-2 (Homo sapiens, UniProt P50579). The experiment in a line: MetAP-2 activity measurement (coupled enzymatic reactions, substrate Met-Arg-Ser, photometric at 450 nm). The format is biochemical. To be noted: read-out: IC50 enzyme (Inhibition of MetAP-2). The protocol:
MetAP-2 Activity Measurement
The MetAP-2 activity is determined by coupling enzymatic reactions. The tripeptide Met-Arg-Ser (MAS) is employed as substrate. The methionine liberated is firstly converted into Metox and H2O2 by L-aminooxidase (AAO). In the second step, the peroxidase (POD) with the aid of the H2O2 catalyses the oxidation of the leukodye dianisidine to dianisidineox, the increase of which is detected photometrically at 450 nm.
MetAP-2 activity can be recorded continuously as kinetics. The reaction scheme illustrates that one mol of dianisidineox is formed per mol of methionene. The MetAP-2 enzyme activity can therefore be calculated directly as Δ absorption per time unit. […] of the MetAP-2 activity (mol of Met/time unit) is possible with the aid of the dianisidineox extinction coefficient.
The change in extinction per time unit is depicted graphically and a slope calculation is carried out in the visually linear region of the reaction.
As for `c1ccc2c(c1)oc1cc(OC[C@H]3CCCN3c3ncnc4[nH]cnc34)ccc12` [A37], the half-maximal inhibitory concentration (IC50) was 1000 to 10000 nM.

Turning to `Cc1cc2c(OC[C@H]3CCCN3c3ncnc4[nH]cnc34)cccc2cn1` [A89, 3-Methyl-5-[(R)-1-(9H-purin-6-yl)pyrrolidin-2-yl-methoxy]isoquinoline], the half-inhibitory concentration (IC50) is 10 to 1000 nM.

In the case of `COCCN1CCN(Cc2ccc(OC[C@H]3CCCN3c3ncnc4[nH]cnc34)c3ccccc23)CC1` [A113, 6-((R)-2-{4-[4-(2-Methoxyethyl)piperazin-1-yl-methyl]naphthalen-1-yloxymethyl}pyrrolidin-1-yl)-9H-purine], the IC50 was in the range of 10 to 1000 nM.

As for `NCCCCCC(=O)N1CCc2cccc(OC[C@H]3CCCN3c3ncnc4[nH]cnc34)c2C1` [A138, 6-Amino-1-{8-[(R)-1-(9H-purin-6-yl)pyrrolidin-2-ylmethoxy]-3,4-dihydro-1H-isoquinolin-2-yl}-hexan-1-one], the IC50 lay in the range of 10 to 1000 nM.

Turning to `FC1(F)C[C@H](COc2cccc3ccccc23)N(c2ncnc3[nH]cnc23)C1` [A8, 6-[(R)-4,4-difluoro-2-(naphthalen-1-yloxymethyl)pyrrolidin-1-yl]-9H-purine], the IC50 fell in the range of 1000 to 10000 nM.

For the molecule `c1cc(OC[C@H]2CCCN2c2ncnc3[nH]cnc23)c2ncoc2c1` [A73, 6-[(R)-2-(Benzoxazol-4-yloxymethyl)pyrrolidin-1-yl]-9H-purine], the 50% inhibitory concentration (IC50) fell in the range of 1000 to 10000 nM.

On to `c1cc(OC[C@H]2CCCN2c2ncnc3[nH]cnc23)c2cccnc2c1` [A86, 5-[(R)-1-(9H-Purin-6-yl)pyrrolidin-2-yl-methoxy]quinoline], for which the IC50 lay in the range of 10 to 1000 nM.

Turning to `Brc1nc2c(N3CCC[C@@H]3COc3cccc4ccccc34)ncnc2[nH]1` [A18, 8-Bromo-6-[(R)-2-(naphthalen-1-yloxymethyl)-pyrrolidin-1-yl]-9H-purine], the concentration for half-maximal inhibition (IC50) was above 10000 nM.

For `Oc1ccc2cccc(OC[C@H]3CCCN3c3ncnc4[nH]cnc34)c2c1` [A124, 8-[(R)-1-(9H-Purin-6-yl)pyrrolidin-2-yl-methoxy]naphthalen-2-ol], the half-maximal inhibitory concentration (IC50) is 1000 to 10000 nM.

For `NCC(=O)N1CCN(c2ccc3cccc(OC[C@H]4CCCN4c4ncnc5[nH]cnc45)c3c2)CC1` [A168, 2-Amino-1-(4-{8-[(R)-1-(9H-purin-6-yl)pyrrolidin-2-ylmethoxy]naphthalen-2-yl}piperazin-1-yl)-ethanone], the 50% inhibitory concentration (IC50) lay in the range of 1000 to 10000 nM.

On to `CCNC(=O)Nc1ccc2cccc(OC[C@H]3CCCN3c3ncnc4[nH]cnc34)c2c1` [A154, 1-Ethyl-3-{8-[(R)-1-(9H-purin-6-yi)pyrrolidin-2-yl-methoxy]naphthalen-2-yl}urea], for which the IC50 is 1000 to 10000 nM.

With `Oc1ccc2cccc(NC[C@H]3CCCN3c3ncnc4[nH]cnc34)c2c1` [A131, 8-{[(R)-1-(9H-Purin-6-yl)pyrrolidin-2-ylmethyl]-amino}naphthalen-2-ol], the IC50 was above 10000 nM.

Regarding `c1ccc(-c2cccc(OC[C@H]3CCCN3c3ncnc4[nH]cnc34)c2)cc1` [A63, 6-[(R)-2-(Biphenyl-3-yloxymethyl)pyrrolidin-1-yl]-9H-purine], the IC50 is 1000 to 10000 nM.

For `COCCOc1cccc2c(OC[C@H]3CCCN3c3ncnc4[nH]cnc34)cccc12` [A58, 6-{(R)-2-[5-(2-Methoxyethoxy)naphthalen-1-yl-oxymethyl]pyrrolidin-1-yl}-9H-purine], the concentration for half-maximal inhibition (IC50) is 10 to 1000 nM.

Take `CC(=O)N1CCN(Cc2ccc(OC[C@H]3CCCN3c3ncnc4[nH]cnc34)c3ccccc23)CC1` [A111, 1-(4-{4-[(R)-1-(9H-Purin-6-yl)pyrrolidin-2-yl-methoxy]naphthalen-1-ylmethyl}piperazin-1-yl)-ethanone]: the concentration for half-maximal inhibition (IC50) is 10 to 1000 nM.

With `c1ccc2c(OC[C@H]3CCCN3c3ncnc4[nH]cnc34)ccc(CNCCN3CCOCC3)c2c1` [A60, (2-Morpholin-4-ylethyl)-{4-[(R)-1-(9H-purin-6-yl)-pyrrolidin-2-ylmethoxy]naphthalen-1-yl-methyl}amine], the IC50 was 10 to 1000 nM.

For the molecule `CCCCNC(=O)c1cc(OC[C@H]2CCCN2c2ncnc3[nH]cnc23)c2ccccc2n1` [A70, N-Butyl-4-[(R)-1-(9H-purin-6-yl)pyrrolidin-2-yl-methoxy]quinoline-2-carboxamide], the half-inhibitory concentration (IC50) was 10 to 1000 nM.

Regarding `CCCCOC1=Cc2c(cccc2OC[C@H]2CCCN2c2ncnc3[nH]cnc23)CC1` [A119, 6-[(R)-2-(7-Butoxy-5,6-dihydronaphthalen-1-yl-oxymethyl)pyrrolidin-1-yl]-9H-purine], the IC50 is 1000 to 10000 nM.

On to `Cn1ncc(Cl)c1/C=C1/CCc2c(OC[C@H]3CCCN3c3ncnc4[nH]cnc34)cccc2C1=O` [A82, 2-[1-(4-Chloro-2-methyl-2H-pyrazol-3-yl)meth-(Z)-ylidene]-5-[(R)-1-(9H-purin-6-yl)pyrrolidin-2-ylmethoxy]-3,4-dihydro-2H-naphthalen-1-one], for which the 50% inhibitory concentration (IC50) lay within 10 to 1000 nM.

Consider `CC1(C)Cc2cccc(OC[C@H]3CCCN3c3ncnc4[nH]cnc34)c2O1` [A72, 6-[(R)-2-(2,2-Dimethyl-2,3-dihydrobenzofuran-7-yloxymethyl)pyrro!idin-1-yl]-9H-purine], for which the IC50 was 1000 to 10000 nM.

Consider `CN(C[C@H]1CCCN1c1ncnc2[nH]cnc12)c1cccc(F)c1` [A21], for which the IC50 was above 10000 nM.

In the case of `c1ccc2c(c1)[nH]c1cccc(OC[C@H]3CCCN3c3ncnc4[nH]cnc34)c12` [A38, 4-[(R)-1-(9H-Purin-6-yl)pyrrolidin-2-ylmethoxy]-9H-carbazole], the IC50 lay within 10 to 1000 nM.

With `O=C(O)/C=C1/CCc2c(OC[C@H]3CCCN3c3ncnc4[nH]cnc34)cccc2C1=O` [A53, [1-Oxo-5-[(R)-1-(9H-purin-6-yl)pyrrolidin-2-yl-methoxy]-3,4-dihydro-1H-naphthalen-(2Z)-ylidene]acetic acid], the IC50 is 10 to 1000 nM.

`Cn1c(C(=O)NCc2ccc(F)cc2)c(OC[C@H]2CCCN2c2ncnc3[nH]cnc23)c2cc(F)ccc21` [A197, N-(4-Fluorobenzyl)-5-fluoro-1-methyl-3-[(R)-1-(9H-purin-6-yl)pyrrolidin-2-ylmethoxy]-1H-indole-2-carboxamide]: the 50% inhibitory concentration (IC50) is above 10000 nM.

In the case of `OC[C@H]1CCCN1Cc1ccc(OC[C@H]2CCCN2c2ncnc3[nH]cnc23)c2ccccc12` [A114, ((R)-1-{4-[(R)-1-(9H-Purin-6-yl)pyrrolidin-2-yl-methoxy]naphthalen-1-ylmethyl}pyrrolidin-2-yl)-methanol], the 50% inhibitory concentration (IC50) was in the range of 10 to 1000 nM.

On to `CC(C)(C)OC(=O)NCCCCCC(=O)N1CCc2cccc(OC[C@H]3CCCN3c3ncnc4[nH]cnc34)c2C1` [A133, tert-Butyl (6-oxo-6-{8-[(R)-1-(9H-purin-6-yl)-pyrrolidin-2-ylmethoxy]-3,4-dihydro-1H-isoquinolin-2-yl}hexyl)carbamate], for which the 50% inhibitory concentration (IC50) was 1000 to 10000 nM.

Turning to `F[C@H]1C[C@H](COc2cccc3ccccc23)N(c2ncnc3[nH]cnc23)C1` [A28, 6-[(2R,4S)-4-Fluoro-2-(naphthalen-1-yl-oxymethyl)pyrrolidin-1-yl]-9H-purine], the IC50 lay within 1000 to 10000 nM.

Consider `Cc1nc2c(N3CCC[C@@H]3COc3ccccc3Cl)ncnc2[nH]1` [A16, 6-[(R)-2-(2-Chlorophenoxymethyl)pyrrolidin-1-yl]-8-methyl-9H-purine], for which the half-inhibitory concentration (IC50) was above 10000 nM.

Regarding `O=S(=O)(O)c1ccc2cccc(NC[C@H]3CCCN3c3ncnc4[nH]cnc34)c2c1` [A132, 8-{[(R)-1-(9H-Purin-6-yl)pyrrolidin-2-yimethyl]-amino}naphthalene-2-sulfonic acid], the 50% inhibitory concentration (IC50) was above 10000 nM.

Source of the values: patent US8846694B2, “Pyrrolidone derivatives for use as MetAP-2 inhibitors” (Merck Patent GmbH, priority 2008, dated 2014).
